# Values quoted from earlier work as cited in paper PMC7961821, “Comparing Ligninolytic Capabilities of Bacterial and Fungal Dye-Decolorizing Peroxidases and Class-II Peroxidase-Catalases” (International Journal of Molecular Sciences, 2021).
# Columns and labels:
# PerVPL = target: T1, PerVPL (Pleurotus eryngii, UniProt O94753); assay: steady-state kinetics, absorbance loss at […] nm; type: biochemical; conditions: read-out: RB19; 1 mM H2O2, optimal pH (not given for RB19), 25 °C
# T1 construct: gene vpl2; heme enzyme
# PchLiPA = target: T2, PchLiPA (Phanerodontia chrysosporium, UniProt P06181); assay: steady-state kinetics, absorbance loss at […] nm; type: biochemical; conditions: read-out: RB19; 1 mM H2O2, optimal pH (not given for RB19), 25 °C
# T2 construct: gene LPOA; heme enzyme
# T2 sequence (P06181 29-372): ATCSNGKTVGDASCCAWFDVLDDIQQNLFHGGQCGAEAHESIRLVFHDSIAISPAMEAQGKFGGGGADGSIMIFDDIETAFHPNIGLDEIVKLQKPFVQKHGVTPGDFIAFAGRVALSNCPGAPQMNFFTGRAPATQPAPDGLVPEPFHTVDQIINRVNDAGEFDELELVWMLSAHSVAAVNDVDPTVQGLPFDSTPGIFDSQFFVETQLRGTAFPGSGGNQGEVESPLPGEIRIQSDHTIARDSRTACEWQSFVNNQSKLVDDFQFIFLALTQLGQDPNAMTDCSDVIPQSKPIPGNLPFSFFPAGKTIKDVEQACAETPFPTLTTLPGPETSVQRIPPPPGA
# T1 sequence (O94753 31-361): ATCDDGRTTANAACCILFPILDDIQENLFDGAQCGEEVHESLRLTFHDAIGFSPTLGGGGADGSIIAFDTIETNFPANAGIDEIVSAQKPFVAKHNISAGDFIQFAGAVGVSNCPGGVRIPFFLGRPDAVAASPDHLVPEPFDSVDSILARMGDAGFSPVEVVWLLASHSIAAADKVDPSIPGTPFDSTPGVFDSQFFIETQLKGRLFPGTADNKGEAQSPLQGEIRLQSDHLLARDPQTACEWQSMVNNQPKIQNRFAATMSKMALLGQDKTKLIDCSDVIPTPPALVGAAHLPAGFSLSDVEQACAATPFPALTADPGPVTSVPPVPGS
compound,measurement,setting,value
Nc1c(S(=O)(=O)O)cc(Nc2cccc(S(=O)(=O)CCOS(=O)(=O)O)c2)c2c1C(=O)c1ccccc1C2=O [RB19],Km,PerVPL,33 ± 8 µM
same,Km,PchLiPA,34 ± 13 µM
